Data reported in patent US7125542B2, “Methods and compositions for treating conditions of the eye” (Massachusetts Eye and Ear Infirmary, priority 2000, dated 2006).
Where two headings read alike, the source gives them in different places.

Experiments:
Bcl-xL = assay: Western blot of Bcl-2 family members in RPE cells after Lu-Tex/PDT; format: cell-based, Human; conditions: up to 4 hours post-PDT, then plateau
Description: (§1) In order to evaluate the expression of Bcl-2 family members in BRCE and RPE cells after Lu-Tex/PDT, BRCE and RPE cells were subjected to Lu-Tex/PDT and the resultant cellular lysates subjected to Western blot analysis for detection of the anti-apoptotic Bcl-2, Bcl-xL markers, and the pro-apoptotic Bax and Bak markers.
(§2) Cell lysates were produced as described in Example 3. Sodium dodecyl sulfate-polyacrylamide gel electrophoresis of proteins was performed with 12% SDS-polyacrylamide gels. All samples were boiled in denaturing sample buffer, and equal amounts of proteins were loaded per lane. Proteins were separated at room temperature under reducing conditions at 120 V. Western blot transfer of separated proteins was performed at room temperature, using polyvinylidene fluoride membranes at 50 mA for 1 hr. To verify equal protein loading, blots were stained with 0.1% ponceau red (Sigma) diluted in 5% acetic acid. Afterwards, blots were blocked for 1 hr in Tris buffered saline (TBS; 10 mM Tris-HCl, pH 7.5, and 150 mM NaCl) containing 5% non-fat dried milk. Next, the membranes were probed with an appropriate dilution (1:250 to 1:1000) of primary antibody in TBS containing 2.5% non-fat dried milk for one and a half hours. Mouse polyclonal antibodies against Bcl-2, Bcl-xL, Bax and Bak were purchased from Pharmingen. […]

Bak = assay: as above; format: cell-based, Human; conditions: up to 4 hours post-PDT, then decline
Description: as §1, §2

[1] = system: Human retinal pigment epithelial (RPE) cells; conditions: cited from earlier work
[2] = system: Human retinal pigment epithelial (RPE) cells; assay: Cell survival, 1-week cell proliferation assay in RPE cells; format: cell-based; conditions: for Cellular Survival (%): RPE
Description: (§3) Bovine retinal capillary endothelial (BRCE) cells (from Patricia A. D'Amore, Schepens Eye Research Institute, Boston, Mass.) and Human retinal pigment epithelial (RPE) cells (from Anthony P. Adamis, Massachusetts Eye & Ear Infirmary, Boston, Mass.) were grown at 37° C., 5% CO2 in Dulbecco's modified Eagle's medium (DMEM; Sigma, St. Louis, Mo.), 5% heat-inactivated fetal bovine serum (FBS, Gibco, Grand Island, N.Y.), supplemented with L-glutamine, penicillin, and streptomycin (Gibco Grand Island, N.Y.). Lutetium Texaphyrin (Lu-Tex) was obtained from Alcon Laboratories, Inc. (Fort Worth, Tex.) as a stock solution of 2 mg/ml, stable in the dark at 4° C., and used in accordance with the manufacturer's guidelines.
(§4) Cell survival was measured using a cell proliferation assay. Briefly, BRCE or RPE cells were plated at a density of 10^5 cells in DMEM with 5% FBS and incubated at 37° C. in 5% CO2. After eighteen hours, and if desired, recombinant human angiostatin (Calbiochem, La Jolla, Calif.) was added at a concentration of 500 ng/ml. Eighteen hours later, the medium was removed and replaced by 3 μg/ml Lu-Tex in complete media. Thirty minutes later, the cultures were exposed to timed irradiation using an argon/dye Photocoagulator at 732 nm and laser delivery system (model 920, Coherent Inc., Palo Alto, Calif.). Irradiance was delivered at a rate of […] to give a total dose of 5 to 20 J/cm^2, and irradiation time ranged from 7 to 28 minutes. After irradiation, the medium was removed and replaced with complete medium. Cultures were returned to the incubator for 7 days, after which cells were dispersed in trypsin, counted in a masked fashion, and the surviving fraction determined. Cultures were photographed at various times following Lu-Tex/PDT using a 16×-0.32 numeric aperture on a phase contrast inverted microscope (Diaphot, Nikon, Melville, N.Y.).

Bcl-2 = assay: Western blot of Bcl-2 family members in BRCE cells after Lu-Tex/PDT; format: cell-based, Bovine; conditions: after Lu-Tex/PDT at LD50
Description: as §1
(§5) Cell lysates were produced as described in Example 3. Sodium dodecyl sulfate-polyacrylamide gel electrophoresis of proteins was performed with 12% SDS-polyacrylamide gels. All samples were boiled in denaturing sample buffer, and equal amounts of proteins were loaded per lane. Proteins were separated at room temperature under reducing conditions at 120 V. Western blot transfer of separated proteins was performed at room temperature, using polyvinylidene fluoride membranes at 50 mA for 1 hr. To verify equal protein loading, blots were stained with 0.1% ponceau red (Sigma) diluted in 5% acetic acid. Afterwards, blots were blocked for 1 hr in Tris buffered saline (TBS; 10 mM Tris-HCl, pH 7.5, and 150 mM NaCl) containing 5% non-fat dried milk. Next, the membranes were probed with an appropriate dilution (1:250 to 1:1000) of primary antibody in TBS containing 2.5% non-fat dried milk for one and a half hours. Mouse polyclonal antibodies against Bcl-2, Bcl-xL, Bax and Bak were purchased from Pharmingen. After incubation with primary antibody, the blots were washed for 30 minutes with frequent changes of TBS, blocked in 1% non-fat dried milk in TBS for 30 minutes, followed by incubation in a peroxidase-coupled secondary antibody for 1 hour in TBS containing 1% non-fat dried milk. The blots were washed for 1 hour with frequent changes of TBST (TBS, 0.1% Tween). Immunoblot analysis was performed using enhanced chemiluminescence plus Western blotting detection reagents (Amersham, Pharmacia Biotec Piscataway, N.J.) followed by exposure to x-ray film (ML Eastman Kodak, Rochester, N.Y.).

Bax = assay: as above; format: cell-based, Bovine; conditions: after Lu-Tex/PDT at LD50
Description: as §1, §5

[3] = typical; cited from earlier work
[4] = stock solution of 2 mg/ml, in the dark at 4° C.; cited from earlier work
[5] = system: Bovine retinal capillary endothelial (BRCE) cells; assay: Cell survival, 1-week cell proliferation assay in BRCE cells; format: cell-based; conditions: for Cellular Survival (%): BRCE
Description: as §3, §4
In order to assess the effect of combining angiostatin to Lu-Tex/PDT on BRCE cell survival, cells were pre-treated for 18 hours with 500 ng/ml angiostatin after which they were treated with Lu-Tex/PDT at various fluences. Cellular survival was measured by the 1-week cellular proliferation assay.

RPE cells = assay: Cellular morphology following PDT, RPE cells; format: cell-based, Human; conditions: after treatment
Description: (§6) Experiments were performed to establish how PDT effects the cellular morphology of BRCE and RPE cells. The cells were treated and exposed to PDT either alone or in combination with angiostatin as described in Example 1. Although cells appeared severely damaged immediately after PDT, subsequent recovery occurred in certain circumstances. One week after PDT, some cells disappeared while those that remained regained their spindle shape and their ability to attach.

[6] = system: Caspase 3-like (DEVD-ase) protease; assay: Caspase 3-like (DEVD-ase) activation, Ac-DEVD-AFC cleavage in BRCE lysates; format: cell-based, Bovine
Description: (§7) In order to investigate the role of apoptosis in Lu-Tex/PDT mediated cell death in BRCE and RPE, the activation of Caspase 3-like (DEVD-ase) protease, a hallmark of apoptosis (Nicholson (1997) TIBS 22: 299–306), was monitored. The kinetics of activation were measured spectrofluorometrically by assaying the hydrolysis of a substrate that can be cleaved only by the caspase 3-like protease family members.
Various times after Lu-Tex/PDT, 10^6 cells were collected by centrifugation, and the washed cell pellet resuspended in 500 μl of ice-cold lysis buffer (pH 7.5) containing 10 mM Tris, 130 mM NaCl, 1% Triton X-100, 10 mM NaF, 10 mM NaPi, 10 mM NaPPi, 16 μg/ml benzamidine, 10 μg/ml phenanthroline, 10 μg/ml aprotinin, 10 μg/ml leupeptin, 10 μg/ml pepstatin and 4 mM 4(2-aminoethyl)-benzene-sulfanyl fluoride hydrochloride (AEBSF). Cellular lysates were stored in aliquots at −84° C. for later protease activity assay or Western blot analysis. A protein assay (Coomassie Plus protein assay (Pierce, Rockford, Ill.) with a bovine serum albumin (BSA) standard was used to assay protein concentration in cell extract.
(§8) In order to measure protease activity, aliquots containing 50 1 μg of cellular protein were incubated with 14 μM (final concentration N-acetyl (Asp-Glu-Val-Asp (SEQ. ID NO: 3)-(7-amino-4-trifluoromethly coumarin) (Ac-DEVD-AFC); (Pharmingen San Diego, Calif.) in 1 ml protease assay buffer pH 7.2 (20 mM piperazine-N-N^1-bis (2-ethanesulfuric acid) (PIPES), 100 mM NaCl, 10 mM dithiothreitol (DTT), 1 mM EDTA, 0.1%(w/v) 3-[(3-Cholamidopropyl) dimethyl ammonio]-1-propane sulfonate (CHAPS), and 10% sucrose) at 37° C. for 1 hour. Fluorescence was measured using a Perkin-Elmer MPF-44A spectrofluorometer (λexcitation, 400 nm; λemission 505 nm). Cellular protein served as the blank.
In order to examine the effect of combining angiostatin and Lu-Tex/PDT on DEVD-ase activation in BRCE cells, cells were treated with angiostatin alone, Lu-Tex/PDT alone and angiostatin/Lu-Tex/PDT, following which caspase 3-like activity was assayed as described above. Fluences of 20 and 40 J/cm^2 were used, corresponding to LD100 of combination angiostatin/Lu-Tex/PDT and Lu-Tex/PDT alone respectively. […] As in the case of BRCE cells treated with Lu-Tex/PDT alone, the rate of entry into apoptosis of BRCE cells treated with combination of angiostatin/Lu-Tex/PDT was time-dependent.

[7] = system: Caspase 3-like (DEVD-ase) protease; assay: Caspase 3-like (DEVD-ase) activation, Ac-DEVD-AFC cleavage in RPE lysates; format: cell-based, Human; conditions: RPE, 10, 20 and 40 J/cm^2
Description: as §7, with “members. […]” for “members.”
as §8, with “Cellular protein served as the blank.” left out

BRCE cells = assay: Cellular morphology following PDT, BRCE cells; format: cell-based, Bovine; conditions: one week after treatment
Description: as §6

[8] = fluence 5 J/cm^2, 3 μg/ml Lu-Tex, angiostatin 500 ng/ml where used, 7 days, mean ± SD
[9] = fluence 10 J/cm^2, 3 μg/ml Lu-Tex, angiostatin 500 ng/ml where used, 7 days, mean ± SD
[10] = fluence 20 J/cm^2, 3 μg/ml Lu-Tex, angiostatin 500 ng/ml where used, 7 days, mean ± SD
[11] = angiostatin alone 500 ng/ml, no PDT

Compound: CC(=O)[O-].CC(=O)[O-].CCc1c(CC)c2cc3nc(cnc4cc(OCCOCCOCCOC)c(OCCOCCOCCOC)cc4ncc4nc(cc1[n-]2)C(CCCO)=C4C)C(C)=C3CCCO.O.[Lu+3] [Lu-Tex/PDT, Lutetium Texaphyrin]
- Bcl-xL protein level (Bcl-xL): upregulation
- Bak protein level (Bak): upregulation
- RPE cell survival ([1]; fluence 20 J/cm^2, previous studies): about 43%
- RPE cell survival ([1]; fluence 40 J/cm^2, previous studies): ~21%
- Cellular Survival (%) [2, 8]: 94.55 ± 1.60 (5J/cm^2) %
- Cellular Survival (%) [2, 9]: 59.59 ± 3.56 (10J/cm^2) %
- Cellular Survival (%) [2, 10]: 53.47 ± 3.18 (20J/cm^2) %
- improvement of RPE cell survival post-PDT ([2]; light dose 20 J/cm^2 (instead of 40 J/cm^2)): 20%
- Bcl-2 protein level (Bcl-2): downregulation
- Bax protein level (Bax): upregulation
- cellular ratio of Bax to Bcl-2 protein (Bax): increase
- persistence in the target neovasculature [3]: about twenty
- time until present within the target neovasculature post administration [3]: one
- stability of stock solution [4]: stable
- Cellular Survival (%) [5, 8]: 79.13 ± 4.05 (5J/cm^2) %
- Cellular Survival (%) [5, 9]: 53.17 ± 0.32 (10J/cm^2) %
- Cellular Survival (%) [5, 10]: 33.34 ± 2.26 (20J/cm^2) %
- dark toxicity ([5]; at the concentration of Lu-Tex used (3 μg/ml), no light): no dark toxicity was observed
- lethality of BRCE cells ([5]; fluence 40 J/cm^2): 100%
- lethal dose (LD100) for BRCE cells ([5]; fluence of light): 40 J/cm^2
- cellular morphology / fate of RPE cells (RPE cells): appeared unchanged
- increase of caspase 3-like activation in BRCE cells as compared to RPE cells ([6]; 10 J/cm^2 and 20 J/cm^2): about 50%
- caspase 3-like activation levels in BRCE relative to RPE cells ([6]; 40 J/cm^2): 5 fold
- caspase 3-like (DEVD-ase) activity, Lu-Tex/PDT (40 J/cm^2) compared with angiostatin/Lu-Tex/PDT (20 J/cm^2) ([6]; BRCE): increased levels
- earliest elevation of caspase 3-like activity post-Lu-Tex/PDT ([6]; BRCE, 10, 20 and 40 J/cm^2): 10 min
- time of peak caspase 3-like activity post-Lu-Tex/PDT ([6]; BRCE, 10, 20 and 40 J/cm^2): 40 min
- earliest elevation of caspase 3-like activity post-Lu-Tex/PDT [7]: 10 min
- time of peak caspase 3-like activity post-Lu-Tex/PDT [7]: 40 min

Compound: C=Cc1c(C)c2cc3nc(c(CC(=O)N[C@@H](CC(=O)O)C(=O)O)c4[nH]c(cc5nc(cc1[nH]2)C(C)=C5CC)c(C)c4C(=O)O)[C@@H](CCC(=O)O)[C@@H]3C [N-aspartyl chlorin e6]
- persistence in the target neovasculature [3]: about twenty
- time until present within the target neovasculature post administration [3]: one

Compound: O=C([O-])c1c(Cl)c(Cl)c(Cl)c(Cl)c1-c1c2cc(I)c(=O)c(I)c-2oc2c(I)c([O-])c(I)cc12.[Na+].[Na+] [rose bengal]
- persistence in the target neovasculature [3]: about ten
- time until present within the target neovasculature post administration [3]: one

Compound: Angiostatin
- Cellular Survival (%) [2, 11]: 99.09%
- cytotoxicity on human RPE cells ([2]; human angiostatin alone): no cytotoxicity was observed
- cellular morphology / fate of BRCE cells (BRCE cells): continued to proliferate and reached confluence
- Cellular Survival (%) [5, 11]: 87.39%
- killing of BRCE cells ([5]; angiostatin alone, 500 ng/ml): 12.61%
- cellular morphology / fate of RPE cells (RPE cells): continued to proliferate and reached confluence

Compound: benzoporphyrin derivative
- persistence in the target neovasculature [3]: about fifty
- time until present within the target neovasculature post administration [3]: one
